Source: patent publication US4379780A, “17 α-Dihydroequilin hapten and assay method” (American Home Products Corporation, priority 1980, dated 1983)

Key:
[1] = tested on: anti-17α-dihydroequilin serum; test: Cross-reactivity of steroids with the anti-17α-dihydroequilin serum (radioimmunoassay); format: binding; settings: selected rabbit anti-17α-dihydroequilin serum; [2,4-3H]-17α-dihydroequilin tracer
Protocol: For the assay procedure, a standard was prepared from a stock solution of unlabeled steroid in absolute ethanol (100 ng/ml). A working standard solution containing 1 ng/ml of unlabeled steroid was prepared in sodium phosphate buffer (0.1 M, pH 7, 0.9% NaCl). The labeled [2,4-^3 H]-17α-dihydroequilin solution was prepared in the assay buffer at a concentration of 100 pg/ml. The antiserum was prepared in BSA-assay buffer (1 g BSA/1000 ml sodium phosphate buffer) at a concentraton of one-fifth of the final working dilutions.
The standard curve was established by preparing duplicate 3 ml centrifuge tubes containing 0, 50, 100, 250, 500, 1000, and 2000 pg of the steroid in a total volume of 0.5 ml assay buffer. The sample tubes were prepared in duplicate with hydrolyzed plasma extract (0.1 ml) and assay buffer (0.4 ml) in a total volume of 0.5 ml. To all standard and sample tubes antibody (0.25 ml) and labeled steroid (0.5 ml) were added. These were mixed and allowed to incubate at 4° C. for 18 hr. After addition of 0.2 ml gamma globulin dextran-coated charcoal (4 g charcoal, 0.4 g dextran, 0.8 g human gamma globulin, 200 ml deionized water), each tube was again mixed and placed in a cold room (4° C.) for 20 min. After centrifugation at 2,500 rev./min for 6 min, 0.5 ml of each supernatant was aliquoted into a counting vial. Then 15 ml of a scintillation medium [(4 g of 2,5-diphenyloxazole (PPO), 50 mg of 1,4-di-2-(5-phenyloxazoyl)benzene (dimethyl-POPOP), 100 ml of the aqueous solubilizer Biosolv BBS-3 (Biosolv is a trademark of Beachman Instruments, Irvine, Calif., U.S.A.) and 1000 ml toluene] was added to each vial. The samples were counted to a relative standard error of less than 2% in a Packard model 3320 liquid scintillation counter, Packard Instrument Co., Downers Grove, Ill., U.S.A., see C. Matthijssen and J. W. Goldzieher, Analyt. Biochem., 10, 401 (1965).
The titer was determined from the ability of antibody to bind a constant amount (50 pg) of the labeled steroid.

[2] = Oxidation of 17α-dihydroequilin to 17α-dihydroequilenin during formic acid hydrolysis (HPLC); format: physicochemical; settings: 120 min
Protocol: Plasma (0.2 ml) and distilled water (0.7 ml) were added to a 16×125 mm tube and mixed. [6,7-^3 H]-Estrone-3-sulfate (0.1 ml, 2000 cpm, obtained from New England Nuclear Corp.), and [2,4-^3 H]-17α-dihydroequilin (0.1 ml, 2000 cpm) was then added to correct for recovery through the assay procedure, and the sample again mixed well and allowed to stand at room temperature for 30 min. Diethyl ether (2 ml) was added for extraction of the free compound. The extraction was repeated three times and the combined extracts washed with distilled water (1 ml) and the solvent removed by evaporation. The aqueous phase containing the conjugates was re-extracted with 2 ml of ethyl acetate-ethanol (4:1, v/v). The extraction was repeated two more times and the combined extracts were dried in a centrifuge tube (12 ml) under a stream of nitrogen. Absolute ethanol was added to those tubes which contained residual water and once again dried under nitrogen. The conjugate fraction was hydrolyzed with formic acid. […] The tube was tightly closed, vortexed, and sonified for 10 min before being placed in a 37° C. water bath for 2 hr. The hydrolyzed sample was taken to dryness, sodium phosphate buffer (1 ml) was added, and the solution was vortexed and allowed to stand at 20° C. for 10 min. The hydrolyzed free compound was extracted with diethyl ether (2 ml) three times and taken to dryness. […]

Compound | 17α-Dihydroequilin Antibody (Percent Cross-Reactivity) [1] | 17α-dihydroequilin oxidized to 17α-dihydroequilenin during hydrolysis with formic acid ([2]; 0.1% (w/v) ascorbic acid added before hydrolysis) | 17α-dihydroequilin oxidized to 17α-dihydroequilenin during hydrolysis with formic acid ([2]; without ascorbic acid)
C[C@]12CCC(=O)C=C1CC[C@@H]1[C@@H]2[C@@H](O)C[C@@]2(C)[C@H]1CC[C@]2(O)C(=O)CO [Cortisol] | < 0.10% | – | –
C[C@]12CCC(=O)C=C1CC[C@@H]1[C@@H]2CC[C@]2(C)C(=O)CC[C@@H]12 [4-Androstene-3,17-dione] | < 0.10% | – | –
C[C@]12CC[C@H]3C(=CCc4cc(O)ccc43)[C@@H]1CC[C@H]2O [17α-Dihydroequilin, 1,3,5(10),7-estratetraene-3,17α-diol] | 100.0% | 2-3% | 13-16%
C[C@]12CC[C@H]3C(=CCc4cc(OS(=O)(=O)O)ccc43)[C@@H]1CC[C@H]2O [17α-Dihydroequilin 3-sulfate] | 9.04% | – | –
C[C@]12CCc3c(ccc4cc(O)ccc34)[C@@H]1CCC2=O [Equilenin] | 0.40% | – | –
C[C@]12CCc3c(ccc4cc(O)ccc34)[C@@H]1CC[C@H]2O [17α-Dihydroequilenin] | < 0.10% | – | –
C[C@]12CC[C@H]3[C@@H](CCC4=CC(=O)CC[C@@]43C)[C@@H]1CC[C@@H]2O [Testosterone] | < 0.10% | – | –
C[C@]12CC[C@@H]3c4ccc(OS(=O)(=O)O)cc4CC[C@H]3[C@@H]1CC[C@H]2O [17α-Estradiol 3-sulfate] | < 0.10% | – | –
C[C@]12CC[C@H]3C(=CCc4cc(O)ccc43)[C@@H]1CCC2=O [Equilin] | 0.7% | – | –
C[C@]12CC[C@@H]3c4ccc(O)cc4CC[C@H]3[C@@H]1CC[C@H]2O [Estradiol-17α] | < 0.10% | – | –
CC(=O)[C@H]1CC[C@H]2[C@@H]3CCC4=CC(=O)CC[C@]4(C)[C@H]3CC[C@]12C [Progesterone] | < 0.10% | – | –
C[C@]12CC[C@@H]3c4ccc(O)cc4CC[C@H]3[C@@H]1CC[C@@H]2O [Estradiol-17β] | < 0.10% | – | –
C[C@]12CCC3=C(CCc4cc(O)ccc43)[C@@H]1CCC2=O [8-Dehydroestrone] | < 0.10% | – | –
C[C@]12CC[C@H]3C(=CCc4cc(O)ccc43)[C@@H]1CC[C@@H]2O [17β-Dihydroequilin] | < 0.10% | – | –
C[C@]12CC[C@H](O)CC1=CC[C@@H]1[C@@H]2CC[C@]2(C)C(=O)CC[C@@H]12 [Dehydroepiandrosterone] | < 0.10% | – | –
C[C@]12CC[C@@H]3c4ccc(O)cc4CC[C@H]3[C@@H]1CCC2=O [Estrone] | < 0.10% | – | –
C[C@]12CC[C@@H](O)C[C@@H]1CC[C@@H]1[C@@H]2CC[C@]2(C)C(=O)CC[C@@H]12 [Androsterone] | < 0.10% | – | –
C[C@]12CC[C@@H]3c4ccc(O)cc4C=C[C@H]3[C@@H]1CCC2=O [6-Dehydroestrone] | < 0.10% | – | –
C[C@]12CC[C@@H]3c4ccc(O)cc4C[C@@H](O)[C@]3(O)[C@@H]1CCC2=O [Equilin-7α,8α-glycol] | < 0.10% | – | –
C[C@]12CCc3c(ccc4cc(O)ccc34)[C@@H]1CC[C@@H]2O [17β-Dihydroequilenin] | < 0.10% | – | –
